Reference: patent publication US20130078718A1, “CONVERSION OF VASCULAR ENDOTHELIAL CELLS INTO MULTIPOTENT STEM-LIKE CELLS” (PRESIDENT AND FELLOWS OF HARVARD COLLEGE, priority 2010, published 2013)
Entries after “also recorded” stand apart in the source; their conditions may differ.

Legend:
HUVEC and HCMEC = assay: Differentiation of treated endothelial cells in osteogenic, chondrogenic or adipogenic culture medium; type: cell-based, human; settings: for alkaline phosphatase staining (osteoblasts) / alizarin red staining (matrix calcification) / gene expression of osteocalcin, osterix, COL2A1, SOX9, adiponectin, PPARγ2 (real-time quantitative PCR) / TIE2 expression in osteoblasts, chondrocytes and adipocytes derived from endothelial cells (immunoblotting): 48 hours treatment; for alkaline phosphatase staining (osteoblasts): then 7 days osteogenic medium; for alizarin red staining (matrix calcification): then 21 days osteogenic medium; for gene expression of osteocalcin, osterix, COL2A1, SOX9, adiponectin, PPARγ2 (real-time quantitative PCR): then osteogenic 7 days, chondrogenic 14 days or adipogenic 7 days, compared to vehicle; for differentiation by alkaline phosphatase, alizarin red, alcian blue or oil red O staining / protein expression of osterix, SOX9 and PPARγ2 (immunoblotting) / expression of endothelial markers TIE2, vWF, VE-cadherin, TIE1 in osteoblasts, chondrocytes, adipocytes derived from endothelial cells (immunoblot): 48 h treatment; for differentiation by alkaline phosphatase, alizarin red, alcian blue or oil red O staining: then differentiation medium 7-21 d; for protein expression of osterix, SOX9 and PPARγ2 (immunoblotting): then osteogenic 7 d, chondrogenic 14 d or adipogenic 7 d; for TIE2 expression in osteoblasts, chondrocytes and adipocytes derived from endothelial cells (immunoblotting) / expression of endothelial markers TIE2, vWF, VE-cadherin, TIE1 in osteoblasts, chondrocytes, adipocytes derived from endothelial cells (immunoblot): HCMEC, then differentiation medium
Protocol: RNA extractions were performed using the RNeasy Mini kit (Qiagen) and protocol. RNA samples were submitted to a core facility (Biopolymers Facility, Department of Genetics, Harvard Medical School) where real-time PCR experiments were conducted using the Syber Green PCR system (ABI) on an ABI 7500 cycler, with 40 cycles per sample. Cycling temperatures were as follows: denaturing 95° C.; annealing 60° C.; extension, 70° C. The following primers (Integrated DNA Technologies) were used: […]
Cells were grown in StemPro osteogenic, chondrogenic, or adipogenic culture medium (Invitrogen). Alkaline phosphatase staining was performed using the alkaline phosphatase kit and protocol (Sigma-Aldrich) on cultures grown in osteogenic medium for 7 days to detect osteoblasts. Alizarin Red (Sigma-Aldrich) staining was performed for 30 minutes on cultures grown in osteogenic medium for 21 days to detect matrix calcification. Alcian Blue (Sigma) staining was used to stain chondrocyte proteoglycans for 5 minutes in cultures grown in chondrogenic medium for 14 days. Oil Red O (Sigma-Aldrich) staining was performed for 15 minutes on cultures grown in adipogenic medium for 7 days.
Cells were grown in StemPro osteogenic, chondrogenic, or adipogenic culture medium (Invitrogen). Alkaline phosphatase staining was performed using the alkaline phosphatase kit and protocol (Sigma-Aldrich) on cultures grown in osteogenic medium for 7 d to detect osteoblasts. Alizarin Red (Sigma-Aldrich) staining was performed for 30 min on cultures grown in osteogenic medium for 21 d to detect matrix calcification. Alcian Blue (Sigma) staining was used to stain chondrocyte proteoglycans for 5 minutes in cultures grown in chondrogenic medium for 14 d. Oil Red O (Sigma-Aldrich) staining was performed for 15 min on cultures grown in adipogenic medium for 7 d. For in vivo analysis, endothelial cells were labeled with fluorescent quantum dots using the Qtracker 525 Cell Labeling Kit (Invitrogen). Cells were treated in culture to induce EndMT then absorbed into OPLA polylactic acid scaffolds (BD Biosciences). Scaffolds were surgically implanted subcutaneously into immunodeficient nude mice (Nu/Nu strain; Charles River Laboratories). Local injection of StemPro differentiation medium (described above) was performed in the area of the implants every 72 h for 6 weeks. Scaffolds were cryosectioned and stained with Alizarin Red, Alcian Blue, or Oil Red O as described above. All procedures were reviewed and approved by the Institutional Animal Care and Use Committee at Harvard Medical School.

[1] = system: Human umbilical vein endothelial cells (HUVECs) and human cutaneous microvascular endothelial cells (HCMECs); assay: Endothelial-mesenchymal transition (EndMT) in endothelial cells: morphology, marker expression by immunoblotting, flow cytometry, real-time PCR, ELISA; type: cell-based

Substance	alkaline phosphatase staining (osteoblasts) (HUVEC and HCMEC)	alizarin red staining (matrix calcification) (HUVEC and HCMEC)	gene expression of osteocalcin, osterix, COL2A1, SOX9, adiponectin, PPARγ2 (real-time quantitative PCR) (HUVEC and HCMEC)	differentiation by alkaline phosphatase, alizarin red, alcian blue or oil red O staining (HUVEC and HCMEC)	protein expression of osterix, SOX9 and PPARγ2 (immunoblotting) (HUVEC and HCMEC)	TIE2 expression in osteoblasts, chondrocytes and adipocytes derived from endothelial cells (immunoblotting) (HUVEC and HCMEC)	expression of endothelial markers TIE2, vWF, VE-cadherin, TIE1 in osteoblasts, chondrocytes, adipocytes derived from endothelial cells (immunoblot) (HUVEC and HCMEC)	staining of clonal populations for osteoblasts, chondrocytes or adipocytes (AP, AR, AB, OR) (HUVEC and HCMEC; three clonal populations of HUVEC and HCMEC, differentiation medium)	TIE2 levels after 96 h of treatment [1]
TGF-β2: Recombinant TGF-β2 protein (R&D Systems), ALK2 activating ligand, used at 10 ng/mL	strong positive staining	high levels of matrix calcification	dramatic increases	differentiated into other cell types	increases in protein expression	strong expression of TIE2	showed expression of these endothelial markers	stained positive	small decrease; also recorded: slight decrease
BMP4: Recombinant BMP4 protein (R&D Systems), ALK2 activating ligand, used at 10 ng/mL	strong positive staining	high levels of matrix calcification	dramatic increases	differentiated into other cell types	increases in protein expression	strong expression of TIE2	showed expression of these endothelial markers		small decrease; also recorded: slight decrease
